Measurements published in patent US4241087A, “Dysmenorrhea treatment” (William H. Rorer, Inc., priority 1979, dated 1980).

Columns and labels:
Assay type in all cases: cell-based
[1] = tested on: Oxytocin induced contractions in the isolated gravid rat uterus; test: Oxytocin induced contractions, isolated gravid rat uterus (isometric, non-cumulative dose response); settings: for inhibition at 40 µg/mL / inhibition at 80 µg/mL / inhibition at 160 µg/mL: Rattus norvegicus; for inhibition at 40 µg/mL: compound 40 μg/ml; for inhibition at 80 µg/mL: compound 80 μg/ml; for inhibition at 160 µg/mL: compound 160 μg/ml
Protocol: (§1) Female virgin Wistar rats at an average weight of 160 g to 220 g are used for the experiment. Prior to the experiment, the animals are housed five per group and maintained according to standard animal husbandry procedures. The animals are treated with DES (100 mg/kg/body weight) 24 hours prior to the experiment.
(§2) The stage of the estrus cycle is determined by vaginal smears on the morning of the experiment. Rats in estrus are killed by a blow on the head and the abdomen is opened. The two horns of the uterus are dissected out and transferred to a dish containing Bathing's solution (composition in g: NaCL, 8.046; KCl, 0.20; CaCl2.2H2 O, 0.132; MgCl2.6H2 O, 0.106; NaHCO3, 1.0; NaH2 PO4, 0.065; Dextrose, 1.0 distilled to 1 liter with distilled water). The two horns are separated and freed from mesentery in Bathing's solution. A thread is attached at each end of each horn and the uterine segment is mounted in a tissue bath (50 ml), maintained at 37° C. by a circulatory bath and aerated with 95% O2 5% CO2. One thread is attached to a fixed pin and the other to a transducer. Contractions are recorded isometrically on a Beckman dynograph in conjunction with a Grass force-displacement transducer (FTO3C) of which has been calibrated in g. tension, or isotonically in conjunction with a Harvard smooth muscle transducer (386). The tissue is subjected to a baseline tension of 0.5 g. The preparation is allowed to equilibrate for 30 minutes prior to the experiment.
(§3) Various spasmogens (such as: acetylcholine chloride, PGF2a, PGE2, oxytocin, BaCl2 or ergonivine maleate) may be used to induce contractions in the isolated uterine strip. See "In Vitro Methodology for Evaluation of Compound Effect on Isolated Guinea Pig Ileum" for description of obtaining dose response curve. Afer the control dose-response curve is obtained, the tissue is allowed to relax for five minutes before the addition of the spasmolytic drug (inhibitory drug). The test drug is in contact with the tissue for two minutes before the dose-response curve is repeated. The inhibitory effect of the test drug is determined as follows: [formula]
(§4) The % maximum response is calculated for each dose of the dose-response curve and the control and drug curves are plotted.
(§5) The dose-response behavior on the isolated gravid rat uterus of Acetylcholine chloride, Oxytocin and PGF2a was compared in the presence and absence of varying doses of 1-(2',6'-dimethylphenyl)-3-methylamidinourea hydrochloride using the non-cumulative dose response method.

[2] = tested on: Ach induced contractions in the isolated gravid rat uterus; test: Ach induced contractions, isolated gravid rat uterus (isometric, non-cumulative dose response); settings: for inhibition at 160 µg/mL / inhibition at 40 µg/mL / inhibition at 80 µg/mL: Rattus norvegicus; for inhibition at 40 µg/mL: compound 40 μg/ml; for inhibition at 80 µg/mL: compound 80 μg/ml
Protocol: as §1, §2, §3, §4, §5

[3] = tested on: PGF2α induced contractions in the isolated gravid rat uterus; test: PGF2α induced contractions, isolated gravid rat uterus (isometric, non-cumulative dose response); settings: for inhibition at 40 µg/mL / inhibition at 80 µg/mL / inhibition at 160 µg/mL: Rattus norvegicus; for inhibition at 40 µg/mL: compound 40 μg/ml; for inhibition at 80 µg/mL: compound 80 μg/ml; for inhibition at 160 µg/mL: compound 160 μg/ml
Protocol: as §1, §2, §3, §4, §5

[4] = increasing doses of compound, in vitro gravid rat uterus

Q: Which results are given for `CNC(=N)NC(=O)Nc1c(C)cccc1C.Cl` [1-(2',6'-dimethylphenyl)-3-methylamidinourea hydrochloride]?
A: inhibition at 40 µg/mL ([1]; Oxytocin 1 × 10^-4 U/ml): < 22.1%; inhibition at 40 µg/mL ([1]; Oxytocin 1 × 10^-5 U/ml): 100%; inhibition at 40 µg/mL ([1]; Oxytocin 3 × 10^-5 U/ml): 22.1%; inhibition at 80 µg/mL ([1]; Oxytocin 1 × 10^-4 U/ml): 14.4%; inhibition at 80 µg/mL ([1]; Oxytocin 1 × 10^-5 U/ml): 100%; inhibition at 80 µg/mL ([1]; Oxytocin 3 × 10^-4 U/ml): < 14.4%; inhibition at 80 µg/mL ([1]; Oxytocin 3 × 10^-5 U/ml): 48.7%; inhibition at 160 µg/mL ([1]; Oxytocin 1 × 10^-3 U/ml): 47.6%; inhibition at 160 µg/mL ([1]; Oxytocin 1 × 10^-4 U/ml): 100%; inhibition at 160 µg/mL ([1]; Oxytocin 1 × 10^-5 U/ml): 100%; inhibition at 160 µg/mL ([1]; Oxytocin 3 × 10^-3 U/ml): 32.5%; inhibition at 160 µg/mL ([1]; Oxytocin 3 × 10^-4 U/ml): 63.2%; inhibition at 160 µg/mL ([1]; Oxytocin 3 × 10^-5 U/ml): 100%; inhibition of Oxytocin induced contractions (in words) [1, 4]: dose dependent; inhibition at 160 µg/mL ([2]; ACH-2, compound 160 μg/ml, Ach 2,560 μg/ml): 67.4%; inhibition at 40 µg/mL ([2]; Ach 20 μg/ml): 100%; inhibition at 40 µg/mL ([2]; Ach 40 μg/ml): 83%; inhibition at 40 µg/mL ([2]; Ach 80 μg/ml): 79.7%; inhibition at 40 µg/mL ([2]; Ach 160 μg/ml): 46.8%; inhibition at 40 µg/mL ([2]; Ach 320 μg/ml): 2.8%; inhibition at 40 µg/mL ([2]; Ach 640 μg/ml): < 2.8%; inhibition at 80 µg/mL ([2]; Ach 20 μg/ml): 100%; inhibition at 80 µg/mL ([2]; Ach 40 μg/ml): 100%; inhibition at 80 µg/mL ([2]; Ach 80 μg/ml): 100%; inhibition at 80 µg/mL ([2]; Ach 160 μg/ml): 95.8%; inhibition at 80 µg/mL ([2]; Ach 320 μg/ml): 26.8%; inhibition at 80 µg/mL ([2]; Ach 640 μg/ml): < 26.8%; inhibition at 160 µg/mL ([2]; compound 160 μg/ml, Ach 20 μg/ml): 100%; inhibition at 160 µg/mL ([2]; compound 160 μg/ml, Ach 40 μg/ml): 100%; inhibition at 160 µg/mL ([2]; compound 160 μg/ml, Ach 80 μg/ml): 100%; inhibition at 160 µg/mL ([2]; compound 160 μg/ml, Ach 160 μg/ml): 100%; inhibition at 160 µg/mL ([2]; compound 160 μg/ml, Ach 320 μg/ml): 93.3%; inhibition at 160 µg/mL ([2]; compound 160 μg/ml, Ach 640 μg/ml): 93.6%; inhibition at 160 µg/mL ([2]; compound 160 μg/ml, Ach 1,280 μg/ml): 84.6%; inhibition at 160 µg/mL ([2]; compound 160 μg/ml, Ach 5,120 μg/ml): 61.2%; inhibition at 160 µg/mL ([2]; compound 160 μg/ml, Ach 10,240 μg/ml): 62.7%; inhibition of Acetylcholine chloride induced contractions (in words) [2, 4]: dose dependent; inhibition at 40 µg/mL ([3]; PGF2α 1 × 10^-7 M): 39.5%; inhibition at 40 µg/mL ([3]; PGF2α 1 × 10^-8 M): 99%; inhibition at 40 µg/mL ([3]; PGF2α 3 × 10^-7 M): < 39.5%; inhibition at 40 µg/mL ([3]; PGF2α 3 × 10^-8 M): 95.1%; inhibition at 80 µg/mL ([3]; PGF2α 1 × 10^-6 M): < 48.9%; inhibition at 80 µg/mL ([3]; PGF2α 1 × 10^-7 M): 64%; inhibition at 80 µg/mL ([3]; PGF2α 1 × 10^-8 M): 98.2%; inhibition at 80 µg/mL ([3]; PGF2α 3 × 10^-7 M): 48.9%; inhibition at 80 µg/mL ([3]; PGF2α 3 × 10^-8 M): 91.3%; inhibition at 160 µg/mL ([3]; PGF2α 1 × 10^-6 M): 96.1%; inhibition at 160 µg/mL ([3]; PGF2α 1 × 10^-7 M): 98.5%; inhibition at 160 µg/mL ([3]; PGF2α 1 × 10^-8 M): 100%; inhibition at 160 µg/mL ([3]; PGF2α 3 × 10^-6 M): 86.8%; inhibition at 160 µg/mL ([3]; PGF2α 3 × 10^-7 M): 96.1%; inhibition at 160 µg/mL ([3]; PGF2α 3 × 10^-8 M): 100%; inhibition of PGF2a induced contractions (in words) [3, 4]: dose dependent
